16 compounds from patent publication US11780823B2, “Indazole-3-carboxamides and their use as Wnt/β-catenin signaling pathway inhibitors” (BioSplice Therapeutics, Inc., priority 2011, dated 2023) can be followed below.

The test system of the assay is Wnt activity (wnt-responsive SP5 promoter luciferase reporter in SW480 cells). Description: Wnt reporter screening assay: SP5 promoter-driven firefly luciferase in SW480 cells. In kind it is cell-based. To be noted: Homo sapiens; SW480 colon cancer cells with SP5 promoter luciferase reporter; half-log dilutions, ten micromolar top concentration; read 24-40 h after compound addition; normalized to DMSO; read-out: Wnt inhibition. An excerpt:
Another screening assay for Wnt activity is described as follows. Reporter cell lines can be generated by stably transducing cells of cancer cell lines (e.g., colon cancer) with a lentiviral construct that include a wnt-responsive promoter driving expression of the firefly luciferase gene.
Lentiviral constructs can be made in which the SP5 promoter, a promoter having eight TCF/LEF binding sites derived from the SP5 promoter, is linked upstream of the firefly luciferase gene. The lentiviral constructs can also include a hygromycin resistance gene as a selectable marker. The SP5 promoter construct can be used to transduce SW480 cells, a colon cancer cell line having a mutated APC gene that generates a truncated APC protein, leading to de-regulated accumulation of β-catenin.
Cultured SW480 cells bearing a reporter construct can be distributed at approximately 10,000 cells per well into 96 well or 384 well plates. Compounds from a small molecule compound library can then be added to the wells in half-log dilutions using a ten micromolar top concentration. A series of control wells for each cell type receive only buffer and compound solvent. Twenty-four to forty hours after the addition of compound, reporter activity for luciferase can be assayed, for example, by addition of the BrightGlo luminescence reagent (Promega) and the Victor3 plate reader (Perkin Elmer). Readings can be normalized to DMSO only treated cells, and normalized activities can then be used in the IC50 calculations.
On the technique in general: Reporter assays use an easily measured gene product as a stand-in for the process of interest.

Molecules are shown by their SMILES.

With `CN(C)C(=O)Nc1cncc(-c2ccc3[nH]nc(C(=O)Nc4cccnc4)c3c2)c1` [Compound 1, 5-(5-(3,3-dimethylureido)pyridin-3-yl)-N-(pyridin-3-yl)-1H-indazole-3-carboxamide], the IC50 worked out at 175 nM. The figure for `O=C(Nc1ccc(C(F)(F)F)nc1)c1n[nH]c2ccc(-c3cncc(F)c3)cc12` [Compound 2, 5-(5-fluoropyridin-3-yl)-N-(6-(trifluoromethyl)pyridin-3-yl)-1H-indazole-3-carboxamide] is 5000 nM; for `O=C(Nc1ccc(C(F)(F)F)nc1)c1n[nH]c2ccc(-c3cccnc3)cc12` [Compound 3, 5-(Pyridin-3-yl)-N-(6-(trifluoromethyl)pyridin-3-yl)-1H-indazole-3-carboxamide] it is 200 nM. With `O=C(Nc1cccnc1)c1n[nH]c2ccc(-c3cccnc3)cc12` [Compound 4, N,5-di(pyridin-3-yl)-1H-indazole-3-carboxamide], the IC50 came to 160 nM.

In the case of `O=C(Nc1cccc(-c2cccc(F)c2)c1)c1n[nH]c2ccc(-c3cccnc3)cc12` [Compound 5, N-(3′-Fluorobiphenyl-3-yl)-5-(pyridin-3-yl)-1H-indazole-3-carboxamide], the IC50 was not below 10000 nM. As for `O=C(Nc1ccncc1)c1n[nH]c2ccc(-c3cccnc3)cc12` [Compound 6, 5-(Pyridin-3-yl)-N-(pyridin-4-yl)-1H-indazole-3-carboxamide], the IC50 stood at 270 nM. The figure for `CN(C)Cc1cncc(NC(=O)c2n[nH]c3ccc(-c4cccnc4)cc23)c1` [Compound 7, N-(5-((Dimethylamino)methyl)pyridin-3-yl)-5-(pyridin-3-yl)-1H-indazole-3-carboxamide] is 110 nM; for `O=C(Nc1ccc(CN2CCCC2)nc1)c1n[nH]c2ccc(-c3cccnc3)cc12` [Compound 8, 5-(Pyridin-3-yl)-N-(6-(pyrrolidin-1-ylmethyl)pyridin-3-yl)-1H-indazole-3-carboxamide] it is 130 nM. For `O=C(Nc1cncc(-c2cccc(F)c2)c1)c1n[nH]c2ccc(-c3cccnc3)cc12` [Compound 9, N-(5-(3-Fluorophenyl)pyridin-3-yl)-5-(pyridin-3-yl)-1H-indazole-3-carboxamide], the IC50 was not below 10000 nM. The figure for `CN1CCN(c2ncccc2NC(=O)c2n[nH]c3ccc(-c4cccnc4)cc23)CC1` [Compound 11, N-(2-(4-Methylpiperazin-1-yl)pyridin-3-yl)-5-(pyridin-3-yl)-1H-indazole-3-carboxamide] is not below 10000 nM; for `CN1CCN(c2ccc(NC(=O)c3n[nH]c4ccc(-c5cccnc5)cc34)cn2)CC1` [Compound 12, N-(6-(4-Methylpiperazin-1-yl)pyridin-3-yl)-5-(pyridin-3-yl)-1H-indazole-3-carboxamide] it is 63 nM. The figure for `O=C(Nc1cccnc1)c1n[nH]c2ccc(-c3cncc(F)c3)cc12` [Compound 13, 5-(5-fluoropyridin-3-yl)-N-(pyridin-3-yl)-1H-indazole-3-carboxamide] is 1250 nM; for `O=C(Nc1ccnnc1)c1n[nH]c2ccc(-c3cccnc3)cc12` [Compound 14, N-(Pyridazin-4-yl)-5-(pyridin-3-yl)-1H-indazole-3-carboxamide] it is 106 nM; for `CN1CCN(Cc2ccc(NC(=O)c3n[nH]c4ccc(-c5cccnc5)cc34)cn2)CC1` [Compound 15, N-(6-((4-Methylpiperazin-1-yl)methyl)pyridin-3-yl)-5-(pyridin-3-yl)-1H-indazole-3-carboxamide] it is 37 nM. As to `O=C(Nc1cccnc1)c1n[nH]c2ccc(-c3cncc(C(F)(F)F)c3)cc12` [Compound 16, N-(pyridin-3-yl)-5-(5-(trifluoromethyl)pyridin-3-yl)-1H-indazole-3-carboxamide], the IC50 is not below 10000 nM. Turning to `O=C(Nc1ccc(Oc2ccccc2F)nc1)c1n[nH]c2ccc(-c3cccnc3)cc12` [Compound 18, N-(6-(2-fluorophenoxy)pyridin-3-yl)-5-(pyridin-3-yl)-1H-indazole-3-carboxamide], the IC50 came to 122 nM.
